# Results: patent publication US7332503B2, “Aporphine esters and their use in therapy” (Axon Biochemicals B.V., priority 2000, dated 2008)
# Counter-ions that a name gives are not always drawn.
# What was measured:
# [1] = literature, animal models; cited from earlier work
# rat [2] = assay: Transdermal experiment in one single rat (shaved neck); type: in vivo
# Method: The test animals used were male albino Wistar rats weighing between 200 and 370 g. Food and water were available to the rats all the time. They were set in a normal 12 hour day night rhythm. Before the operation the animals resided in a larger cage with a group of rats. During the experiments they were alone in a cage with the dimensions 25*25*35 cm. The blood sampling was performed in freely moving animals, which were all conscious. In this way potential behavioral changes from the treatment could be registered. The operation consisted of the application of a cannula in the vena jugularis. After an experiment the rats were given at least 24 hours to recover.
# This amount of cream was applied with a spatula on the shaved neck of the rat, weighing about 350 g.
# After one hour and 10 minutes, about five droplets of DMSO were smeared on to the rat neck.
# In a comparative experiment 7 mg of Apomorphine hydrochloride solid was dissolved in DMSO (70 microliters).
# rat [3] = assay: Dopaminergic activity in rats after s.c. injection in Viscoleo; type: in vivo; settings: two rats, ca 3.7 mg/kg (corr. to 2 mg/kg ApoxHCl), 3.7 mg/mL in Viscoleo
# Method: The maximum volume of an oil solution/suspension to be injected intramuscularly or subcutaneously is 2-4 mL. This is feasible for the preparations of the aporphine derivatives of the present invention. The accumulated daily dose used in apomorphine s.c. therapy in Parkinson's disease is 4-10 times about 1-4 mg (4-40 mg/day). For the animal experiments performed in the pharmacological research, which led to the present invention, ca 2 mg Apomorphine×HCl (or equivalent molar amount of compounds according to Formula I above, as the base or as a suitable salt or ion-pair) was dissolved in 1 mL of an oil (sesame oil, Viscoleo or another approved oil) and the mixture was gently heated (max 50° C.) shaken in a test tube shaker and ultrasonicated for a short time (minutes) until the mixture became a homogeneous solution or suspension. If necessary, the test compound was first dissolved in 50-300 μL DMSO, water, t-BuOH, PEG, benzylbenzoate, or another suitable and approved solvent or mixtures thereof, before adding the oil (see above) to a total volume of 1 mL.
# First 2 eq. were added and after a night at room temperature the solvent was evaporated and the residue was redissolved in CH2Cl2 and a sample was taken with a pipette and chromatographed on a pipette filled with Al2O3. Elution was performed with first CH2Cl2 and then with CH2Cl2:EtOH (9:1). […]
# [4] = background statement; cited from earlier work
# [5] = comparative: 2 mg in 20 microliters DMSO on shaved neck
# [6] = about 5 mg in Fenuril cream plus DMSO
compound,measurement,setting,value
"CC(=O)Oc1ccc2c(c1OC(C)=O)-c1cccc3c1C(C2)N(C)CC3 (centres unmarked) [10,11-Di-acetyl-apomorphine]",activity relative to parent compound apomorphine,[1],almost as potent as apomorphine itself
CN1CCc2cccc3c2[C@H]1Cc1ccc(O)c(O)c1-3 [Apomorphine hydrochloride],dopaminergic activity after end of stereotypy,rat [2]; [5],No other signs of dopaminergic activity
same,duration of intense stereotypy,rat [2]; [5],about two
same,time to stereotypy,rat [2]; [5],about 30 minutes
CCCCCCCCCCCCCCCC(=O)Oc1ccc2c(c1OC(=O)CCCCCCCCCCCCCCC)-c1cccc3c1C(C2)N(C)CC3 (centres unmarked) [di-C16-Apo],effect (dopaminergic activity),rat [3],No effect whatsoever
CN1CCc2cccc3c2C1Cc1ccc(OC(=O)C(C)(C)C)c(OC(=O)C(C)(C)C)c1-3 (centres unmarked) [dipivaloyl ester pro-drug],activity relative to parent compound apomorphine,[1],much less active than the parent compound
N[C@@H](Cc1ccc(O)c(O)c1)C(=O)O [levodopa],fraction of drug converted to DA in peripheral tissues,[4],about 95%
same,fraction of drug that enters the brain,[4],less than 1%
Mono-Butyryl Apomorphine [Example 2],behaviour the next day at 10:00 a.m.,rat [2]; [6],still active showing signs of chewing
same,"time at which chewing, sniffing and yawning were still observed",rat [2]; [6],~6 h
same,duration of stereotypy,"rat [2]; about 5 mg in Fenuril cream, after DMSO",at least two
same,time to typical dopaminergic syndrome including locomotor activity,"rat [2]; about 5 mg in Fenuril cream, time after DMSO",About 30 minutes
same,"time to intense yawning, sniffing, penile licking and chewing","rat [2]; about 5 mg in Fenuril cream, time after about five droplets of DMSO smeared on neck",about 10 minutes
same,dopaminergic effects,"rat [2]; about 5 mg in about 120 mg Fenuril hand cream on shaved neck, first hour, before DMSO",Dopaminergic effects were seen but they were weak
